We go through 31 compounds from US20210276967A1 (OSPEDALE SAN RAFFAELE S.R.L., priority 2018, published 2021).

The structures appear in SMILES notation.

The first assay relates to HBV. Kind of assay: HBV inhibition in HepAD38 cells, extracellular HBV DNA by direct qPCR. It is filed as cell-based, hepatitis B virus. The following applies: Hepatitis B virus; 0.1 μM, HepAD38, 96 hours; read-out: HBV inhibition % (conc μM). From the text:
HepAD38 cell line (Ladner et al., Antimicrob Agents Chemother, 1997, 41, 1715-20) was used for HBV inhibition assays. HepAD38 is a subclone, derived from hepatoblastoma cell line HepG2 (ATCC® Number: HB-8065™), that expresses HBV genome under the transcriptional control of a tetracycline-responsive promoter in a TET-OFF system: addition of tetracycline (TET) or doxycycline suppresses HBV replication, while its removal switches on the process allowing HBV viral particles release in the cell supernatant. HepAD38 cell line is maintained in DMEM/F12, supplemented with 10% of fetal bovine serum, 1% of glutamine, 1% of penicillin/streptomycin, 0.4 mg/ml G418 and 0.3 ug/ml tetracycline. For the HBV inhibition assay, doxycycline-free medium is used in order to allow virion production.
HBV inhibition activity in vitro was performed in 96 multiwell plates. During the initial (primary) screening compounds were first tested in triplicates at concentrations of 0.1 μM, 0.5 μM and 1 μM. For selected compounds, an 8-point dose-response curve was obtained using 1:2 serial dilutions (starting from 2.5 μM, 1.25 μM or 0.4 μM, depending on the degree of inhibition observed during the primary screening). From the dose-response curves, half maximal effective concentration (EC50) could be calculated (see also below).
In more detail, compounds—typically dissolved in DMSO stock solutions—were diluted to 2× the final desired concentration in 100 μl of the above medium (without doxycycline) and plated in three replicates in the 96-well plates.
Simultaneously, HepAD38 cells—extensively pre-washed in tetracycline-free medium in order to induce HBV production—were suspended at 2*10^4 cells in 100 μl of tetracycline-free medium and added to each well of the plate, to yield a final assay volume of 200 μl.
DMSO, used for stock solutions and compounds dilutions, is always present in the assays at a final concentration of 0.5%.
Plates were then incubated 96 hours at 37° C. and then subjected to cell viability assays and extracellular HBV quantification, in order to evaluate both the cytotoxic potential and the anti-viral activity of compounds.
Cytotoxicity was assessed by a commercial fluorescence assay that measures the metabolic activity of cells, directly related to cell viability (Cell Titer Blue, Promega). For each compound, cytotoxicity was evaluated at the same concentration employed to evaluate its anti-HBV activity. Anti-HBV activity was evaluated by quantification of extracellular HBV DNA with direct qPCR. In particular, supernatant was collected and centrifuged for cell debris clarification, viral DNA was extracted from virions by addition of lysis buffer (1 mM 1,4-dithiothreitol, 0.2% sodium dodecyl sulphate) and incubated at 95° C. for 10 min. Samples were then diluted 1:40 and real time PCR amplification was performed with SYBR green assay (Power SYBR™ Green PCR Master Mix-Thermo Fisher Scientific) and specific HBV primer (HBV-DF:5′-[…]-3′ (SEQ ID No. 1), HBV-DR:5′-[…]-3′ (SEQ ID No. 2)).
All HBV inhibition or antiviral activity data are typically reported in percent (%) relative to a non-treated reference sample. Excel and Graphpad Prism programs are typically used for data elaboration and EC50 calculation.
On the technique in general: In qPCR the cycle at which signal appears reflects the starting amount.
One may read the inhibition as the relative decrease from the control value, in per cent. On to `Cc1cc(N)c(S(=O)(=O)N[C@H](C)C(F)(F)F)cc1C(=O)Nc1cc(F)c(F)c(F)c1` [Example E63, (R)-4-amino-2-methyl-N-(3,4,5-trifluorophenyl)-5-(N-(1,1,1-trifluoropropan-2-yl)sulfamoyl)benzamide], for which the inhibition at 0.1 µM is more than 50%.

Turning to `Cc1cc(N)c(S(N)(=O)=O)cc1C(=O)Nc1cc(F)c(F)c(Cl)c1` [Example E65, 4-amino-N-(3-chloro-4,5-difluorophenyl)-2-methyl-5-sulfamoylbenzamide], the inhibition at 0.1 µM was more than 50%.

On to `Nc1ncc(C(=O)Nc2cc(F)c(F)c(F)c2)cc1S(=O)(=O)N[C@H]1CC[C@H](O)CC1` [Example E58, trans-6-amino-5-(N-(4-hydroxycyclohexyl)sulfamoyl)-N-(3,4,5-trifluorophenyl)nicotinamide], for which the inhibition at 0.1 µM is less than 50%.

The assay is the same for the next values; noted with them: Hepatitis B virus; 0.5 μM, HepAD38, 96 hours; read-out: HBV inhibition % (conc μM).
Regarding `Cc1cc(C(=O)Nc2cc(F)c(F)c(F)c2)cc(S(N)(=O)=O)c1N` [Example E36, 4-amino-3-methyl-5-sulfamoyl-N-(3,4,5-trifluorophenyl)benzamide], the inhibition at 0.5 µM is more than 50%.

Regarding `Nc1ccc(C(=O)Nc2cc(F)c(F)c(F)c2)cc1S(=O)(=O)NC1CCNCC1` [Example E28, 4-amino-3-(N-(piperidin-4-yl)sulfamoyl)-N-(3,4,5-trifluorophenyl)benzamide], the inhibition at 0.5 µM is less than 50%.

In the case of `C[C@@H](NS(=O)(=O)c1cc(C(=O)Nc2cc(F)c(F)c(F)c2)ccc1N)C(F)(F)F` [Example E18, (R)-4-amino-N-(3,4,5-trifluorophenyl)-3-(N-(1,1,1-trifluoropropan-2-yl)sulfamoyl)benzamide], the inhibition at 0.5 µM is more than 50%.

On to `Cc1cc(N)c(S(=O)(=O)N[C@@H](C)C(F)(F)F)cc1C(=O)Nc1cc(F)c(F)c(F)c1` [Example E64, (S)-4-amino-2-methyl-N-(3,4,5-trifluorophenyl)-5-(N-(1,1,1-trifluoropropan-2-yl)sulfamoyl)benzamide], for which the inhibition at 0.5 µM was more than 50%.

Regarding `C[C@H](NS(=O)(=O)c1cc(C(=O)Nc2cc(F)c(F)c(F)c2)ccc1N)C(F)(F)F` [Example E19, (S)-4-amino-N-(3,4,5-trifluorophenyl)-3-(N-(1,1,1-trifluoropropan-2-yl)sulfamoyl)benzamide], the inhibition at 0.5 µM is more than 50%.

With `Cc1cc(NC(=O)c2ccc(N)c(S(N)(=O)=O)c2)ccc1F` [Example E12, 4-amino-N-(4-fluoro-3-methylphenyl)-3-sulfamoylbenzamide], the inhibition at 0.5 µM is more than 50%.

`Nc1ccc(C(=O)Nc2cc(F)c(F)c(F)c2)cc1S(=O)(=O)N[C@H]1C[C@@H](O)C1` [Example E24]: the inhibition at 0.5 µM was more than 50%.

Regarding `Nc1ccc(C(=O)Nc2cc(F)c(F)c(F)c2)cc1S(=O)(=O)N1CCC(O)(CO)CC1` [Example E50, 4-amino-3-((4-hydroxy-4-(hydroxymethyl)piperidin-1-yl)sulfonyl)-N-(3,4,5-trifluorophenyl)benzamide], the inhibition at 0.5 µM is more than 50%.

Turning to `Nc1ccc(C(=O)Nc2ccc(F)c(Cl)c2)cc1S(N)(=O)=O` [Example E10, 4-amino-N-(3-chloro-4-fluorophenyl)-3-sulfamoylbenzamide], the inhibition at 0.5 µM is more than 50%.

With `Nc1ccc(C(=O)Nc2cc(F)c(F)c(F)c2)cc1S(=O)(=O)N[C@@H]1CC[C@H](O)C1` [Example E49, 4-amino-3-(N-((1R,3S)-3-hydroxycyclopentyl)sulfamoyl)-N-(3,4,5-trifluorophenyl)benzamide], the inhibition at 0.5 µM is more than 50%.

Turning to `Cc1cc(N)c(S(N)(=O)=O)cc1C(=O)Nc1ccc(F)c(C#N)c1` [Example E69, 4-amino-N-(3-cyano-4-fluorophenyl)-2-methyl-5-sulfamoylbenzamide], the inhibition at 0.5 µM was more than 50%.

For `Nc1ccc(C(=O)Nc2cc(F)c(F)cc2F)cc1S(N)(=O)=O` [Example E15, 4-amino-3-sulfamoyl-N-(2,4,5-trifluorophenyl)benzamide], the inhibition at 0.5 µM is less than 50%.

Regarding `Nc1ccc(C(=O)Nc2cc(F)c(F)c(F)c2)cc1S(=O)(=O)NCC(O)CO` (stereo not shown) [Example E56, 4-amino-3-(N-(2,3-dihydroxypropyl)sulfamoyl)-N-(3,4,5-trifluorophenyl)benzamide], the inhibition at 0.5 µM was more than 50%.

For the compound `Nc1ccc(S(N)(=O)=O)cc1C(=O)Nc1cc(F)c(F)c(F)c1` [Example E59, 2-amino-5-sulfamoyl-N-(3,4,5-trifluorophenyl)benzamide], the inhibition at 0.5 µM is less than 50%.

Consider `Cc1cc(NC(=O)c2ccc(N)c(S(=O)(=O)N[C@H]3CC[C@H](O)CC3)c2)ccc1F` [Example E46], for which the inhibition at 0.5 µM is more than 50%.

Take `Nc1ccc(C(=O)Nc2ccc(F)c(C(F)F)c2)cc1S(N)(=O)=O` [Example E9, 4-amino-N-(3-(difluoromethyl)-4-fluorophenyl)-3-sulfamoylbenzamide]: the inhibition at 0.5 µM is more than 50%.

Turning to `Nc1ccc(C(=O)Nc2cc(F)c(F)c(F)c2)cc1S(=O)(=O)Nc1ccncc1` [Example E31, 4-amino-3-(N-(pyridin-4-yl)sulfamoyl)-N-(3,4,5-trifluorophenyl)benzamide], the inhibition at 0.5 µM is less than 50%.

Turning to `Nc1ccc(C(=O)Nc2ccc(F)c(Cl)c2)cc1S(=O)(=O)N1CCC(O)CC1` [Example E54, 4-amino-N-(3-chloro-4-fluorophenyl)-3-((4-hydroxypiperidin-1-yl)sulfonyl)benzamide], the inhibition at 0.5 µM was more than 50%.

For `Nc1ccc(C(=O)Nc2ccc(F)c(Cl)c2)cc1S(=O)(=O)N[C@H]1CC[C@H](O)CC1` [Example E43, trans-4-amino-N-(3-chloro-4-fluorophenyl)-3-(N-(4-hydroxycyclohexyl)sulfamoyl)benzamide], the inhibition at 0.5 µM was more than 50%.

Take `Nc1ncc(C(=O)Nc2cc(F)c(F)c(F)c2)cc1S(N)(=O)=O` [Example E37, 6-amino-5-sulfamoyl-N-(3,4,5-trifluorophenyl)nicotinamide]: the inhibition at 0.5 µM is less than 50%.

`Nc1ccc(C(=O)Nc2cc(F)c(F)c(F)c2)cc1S(=O)(=O)N[C@@H]1CC[C@@H](O)C1` (relative stereo) [Example E57, trans-4-amino-3-(N-(3-hydroxycyclopentyl)sulfamoyl)-N-(3,4,5-trifluorophenyl)benzamide]: the inhibition at 0.5 µM was more than 50%.

For `Nc1ccc(C(=O)Nc2ccc(F)cc2Cl)cc1S(N)(=O)=O` [Example E16, 4-amino-N-(2-chloro-4-fluorophenyl)-3-sulfamoylbenzamide], the inhibition at 0.5 µM was less than 50%.

Consider `Nc1ccc(C(=O)Nc2cc(F)c(F)c(F)c2)cc1S(=O)(=O)N[C@H]1CCNC1` [Example E35, (S)-4-amino-3-(N-(pyrrolidin-3-yl)sulfamoyl)-N-(3,4,5-trifluorophenyl)benzamide], for which the inhibition at 0.5 µM was less than 50%.

Staying with this assay, now noted: Hepatitis B virus; 1 μM, HepAD38, 96 hours; read-out: HBV inhibition % (conc μM).
Turning to `CC(C)(C)OC(=O)N[C@@H]1CCC[C@@H]1NS(=O)(=O)c1cc(C(=O)Nc2cc(F)c(F)c(F)c2)ccc1N` [Example E51, tert-butyl ((1R,2S)-2-((2-amino-5-((3,4,5-trifluorophenyl)carbamoyl)phenyl)sulfonamido)cyclopentyl)carbamate], the inhibition at 1 µM is more than 50%.

As to `Nc1cc(Br)c(C(=O)Nc2cc(F)c(F)c(F)c2)cc1S(N)(=O)=O` [Example E6, 4-amino-2-bromo-5-sulfamoyl-N-(3,4,5-trifluorophenyl)benzamide], the inhibition at 1 µM is more than 50%.

In the case of `CNS(=O)(=O)c1cc(C(=O)Nc2cc(F)c(F)c(F)c2)ccc1N` [Example E2, 4-amino-3-(N-methylsulfamoyl)-N-(3,4,5-trifluorophenyl)benzamide], the inhibition at 1 µM is more than 50%.

Still in this assay, the particulars now being: Hepatitis B virus; HepAD38, 8-point dose-response; read-out: HBV inh EC50.
In general, EC50 refers to the concentration at which the effect is half-maximal. Take `Cc1cc(N)c(S(N)(=O)=O)cc1C(=O)Nc1ccc(F)c(Cl)c1` [Example E60, 4-amino-N-(3-chloro-4-fluorophenyl)-2-methyl-5-sulfamoylbenzamide]: the concentration giving a half-maximal response (EC50) is less than 1 µM.

Regarding `Nc1cc(Cl)c(C(=O)Nc2cc(F)c(F)c(F)c2)cc1S(N)(=O)=O` [Example E5, 4-amino-2-chloro-5-sulfamoyl-N-(3,4,5-trifluorophenyl)benzamide], the 50% effective concentration (EC50) is less than 1 µM.
